Experimental data from ChEMBL document CHEMBL1201862, “PubChem BioAssay data set” (2004).
Active and inactive are the calls of the source.

Columns and labels:
[1] = target: T1, Dual specificity protein phosphatase 3 (Homo sapiens, UniProt P51452); test: VHR1 phosphatase inhibitors, primary screen, biochemical, absorbance, uHTS (AID 1654)
[2] = target: T2, Voltage-gated N-type calcium channel alpha-1B subunit/Amyloid beta A4 precursor protein-binding family A member 1 (Homo sapiens, UniProt Q00975+Q02410); format: protein assay
[3] = target: T2, Voltage-gated N-type calcium channel alpha-1B subunit/Amyloid beta A4 precursor protein-binding family A member 1; format: protein assay; remark: listed apart in the source
[4] = target: Induced myeloid leukemia cell differentiation protein Mcl-1 (Homo sapiens, UniProt Q07820); test: MCL1-BIM BH3 interaction inhibitors, dose response, biochemical, fluorescence polarization, BIM-BH3 peptide, 1536-well (AID 2217)
[5] = target: T1, Dual specificity protein phosphatase 3; test: VHR1 phosphatase inhibitors, biochemical (AID 1878)
[6] = target: Bcl-2-like protein 1 (Homo sapiens, UniProt Q07817); test: BCL-XL inhibitors, dose response, selectivity assay for MCL1 inhibitor project, biochemical, fluorescence polarization, 1536-well (AID 2218)
[7] = target: Dual specificity protein phosphatase 6 (Rattus norvegicus, UniProt Q64346); test: MKP-3 phosphatase inhibitors, primary screen, biochemical, rat enzyme, in vitro (AID 425)
[8] = target: Beta-galactosidase (Escherichia coli, UniProt Q8VNN2); test: beta-galactosidase enzyme inhibitors and activators, dose response, artefact control for CCR6 antagonist project, biochemical, E. coli enzyme, set 3 (AID 504712); format: functional
[9] = target: T3, Replicative DNA helicase DnaB (Mycobacterium tuberculosis, UniProt P9WMR3); test: DnaB intein splicing inhibitors, dose response, biochemical, cell-free fluorescence (AID 449749); format: functional
T3 sequence (P9WMR3 whole entry): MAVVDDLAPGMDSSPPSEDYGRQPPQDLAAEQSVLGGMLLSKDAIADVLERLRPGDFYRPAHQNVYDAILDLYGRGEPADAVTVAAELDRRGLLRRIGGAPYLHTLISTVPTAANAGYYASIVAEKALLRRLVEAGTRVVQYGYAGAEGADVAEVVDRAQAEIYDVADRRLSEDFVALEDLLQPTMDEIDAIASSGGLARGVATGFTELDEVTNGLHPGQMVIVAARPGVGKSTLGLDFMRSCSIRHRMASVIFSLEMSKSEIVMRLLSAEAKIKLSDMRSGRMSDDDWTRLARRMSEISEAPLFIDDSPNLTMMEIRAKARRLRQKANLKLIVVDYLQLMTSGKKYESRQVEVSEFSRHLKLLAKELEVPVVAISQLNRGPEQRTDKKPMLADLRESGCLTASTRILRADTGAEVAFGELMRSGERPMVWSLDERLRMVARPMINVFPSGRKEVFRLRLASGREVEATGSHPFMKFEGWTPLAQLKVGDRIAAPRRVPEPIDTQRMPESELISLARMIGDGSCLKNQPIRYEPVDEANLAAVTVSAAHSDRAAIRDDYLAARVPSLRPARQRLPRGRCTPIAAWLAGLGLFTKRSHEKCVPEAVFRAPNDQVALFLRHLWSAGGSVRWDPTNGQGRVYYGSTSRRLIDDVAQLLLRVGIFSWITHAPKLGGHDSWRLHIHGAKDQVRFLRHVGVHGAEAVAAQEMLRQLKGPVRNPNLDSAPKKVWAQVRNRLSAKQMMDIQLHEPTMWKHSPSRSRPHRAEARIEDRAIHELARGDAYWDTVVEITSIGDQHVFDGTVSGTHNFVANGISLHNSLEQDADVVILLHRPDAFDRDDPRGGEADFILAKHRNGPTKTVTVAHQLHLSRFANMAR

[10] = target: T4, Protein RecA (Mycobacterium tuberculosis, UniProt P9WHJ3); test: Fluorescence Cell-Free Homogeneous Dose Retest to Identify Inhibitors of RecA-Intein Splicing Activity. [Related pubchem assays (depositor defined):AID2097, AID2223, AID489010, AID492950]; format: functional
T4 sequence (P9WHJ3 whole entry): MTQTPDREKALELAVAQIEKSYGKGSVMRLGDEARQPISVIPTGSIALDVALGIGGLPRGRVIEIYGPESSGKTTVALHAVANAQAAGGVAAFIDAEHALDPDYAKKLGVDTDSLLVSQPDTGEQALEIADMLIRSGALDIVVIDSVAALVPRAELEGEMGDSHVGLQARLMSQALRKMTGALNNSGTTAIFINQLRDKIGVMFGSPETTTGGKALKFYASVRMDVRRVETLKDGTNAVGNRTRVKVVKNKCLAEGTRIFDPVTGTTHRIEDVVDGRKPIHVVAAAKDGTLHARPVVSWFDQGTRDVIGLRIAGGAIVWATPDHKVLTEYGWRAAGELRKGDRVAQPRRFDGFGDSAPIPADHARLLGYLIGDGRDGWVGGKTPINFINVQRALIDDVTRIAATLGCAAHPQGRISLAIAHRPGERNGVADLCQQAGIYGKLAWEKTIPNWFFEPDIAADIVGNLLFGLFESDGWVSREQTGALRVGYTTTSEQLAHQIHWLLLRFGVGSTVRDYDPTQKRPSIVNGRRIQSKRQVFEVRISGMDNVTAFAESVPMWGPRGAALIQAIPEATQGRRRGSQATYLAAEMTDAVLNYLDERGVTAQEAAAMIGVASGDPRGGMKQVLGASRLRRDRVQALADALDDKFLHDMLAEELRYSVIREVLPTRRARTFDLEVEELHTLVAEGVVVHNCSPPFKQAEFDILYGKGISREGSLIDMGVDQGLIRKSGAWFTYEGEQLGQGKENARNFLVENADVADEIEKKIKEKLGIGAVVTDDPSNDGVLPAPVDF

[11] = target: Genome polyprotein (dengue virus type 2, UniProt P29990); test: Dengue-2 NS5 methyltransferase inhibitors, primary screen, biochemical, confirmation dose response (AID 588689); format: functional
[12] = target: Sphingosine 1-phosphate receptor 5 (Homo sapiens, UniProt Q9H228); test: Late stage counterscreen assay for S1P4 antagonists: Fluorescence dose response cell-based screening assay for antagonists of the Sphingosine 1-Phosphate Receptor 5 (S1P5). [Related pubchem assays (depositor defined):AID1510, AID1524, AID1692, AID1853, AID2332, AID489009, AID489017]; format: functional
[13] = target: Sphingosine 1-phosphate receptor 3 (Homo sapiens, UniProt Q99500); test: Late stage counterscreen assay for S1P4 antagonists: Fluorescence dose response cell-based screening assay for antagonists of the Sphingosine 1-Phosphate Receptor 3 (S1P3). [Related pubchem assays (depositor defined):AID1510, AID1524, AID1692, AID1853, AID2332, AID489009, AID489017]; format: functional
[14] = target: Sphingosine 1-phosphate receptor 1 (Homo sapiens, UniProt P21453); test: Late stage counterscreen assay for S1P4 antagonists: Fluorescence dose response cell-based screening assay for antagonists of the Sphingosine 1-Phosphate Receptor 1 (S1P1). [Related pubchem assays (depositor defined):AID1510, AID1524, AID1692, AID1853, AID2332, AID489009, AID489017]; format: functional
[15] = target: T5, Sphingosine 1-phosphate receptor 4 (Homo sapiens, UniProt O95977); test: S1P4 receptor antagonists, human, late-stage follow-up, cell-based, fluorescence, synthesized analogues (AID 2346); format: functional
T5 sequence (O95977 whole entry): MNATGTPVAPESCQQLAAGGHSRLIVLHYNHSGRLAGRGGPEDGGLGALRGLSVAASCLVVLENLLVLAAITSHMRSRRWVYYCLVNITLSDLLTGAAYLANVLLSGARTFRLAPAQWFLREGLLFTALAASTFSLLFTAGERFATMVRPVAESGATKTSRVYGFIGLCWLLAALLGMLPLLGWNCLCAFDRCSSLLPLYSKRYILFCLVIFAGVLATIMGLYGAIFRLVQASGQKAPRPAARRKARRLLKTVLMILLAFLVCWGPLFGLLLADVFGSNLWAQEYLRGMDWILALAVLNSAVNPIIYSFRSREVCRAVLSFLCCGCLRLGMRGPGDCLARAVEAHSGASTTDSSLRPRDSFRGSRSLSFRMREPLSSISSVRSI

[16] = target: Sphingosine 1-phosphate receptor 2 (Homo sapiens, UniProt O95136); test: Late stage counterscreen assay for S1P4 antagonists: Fluorescence dose response cell-based screening assay for antagonists of the Sphingosine 1-Phosphate Receptor 2 (S1P2). [Related pubchem assays (depositor defined):AID1510, AID1524, AID1692, AID1853, AID2332, AID489009, AID489017]; format: functional
[17] = target: Nucleotide-binding oligomerization domain-containing protein 1 (Homo sapiens, UniProt Q9Y239); test: SAR analysis of compounds that inhibit NOD1 - Set 3. [Related pubchem assays (depositor defined):AID1566, AID1575, AID1578, AID1849, AID1852, AID2333, AID2335, AID2466]; format: functional
[18] = target: Tumor necrosis factor (Homo sapiens, UniProt P01375); test: TNFa-triggered NF-kB activation inhibitors, SAR follow-up, cell-based, set 3 (AID 2801); format: functional
[19] = test system: HEK293; test: SAR analysis of compounds that are cytotoxic to HEK293 - Set 3. [Related pubchem assays (depositor defined):AID1575, AID1578, AID1848, AID1849, AID2001, AID2333, AID2334, AID2335, AID2337, AID2469]; format: functional, cell-based; conditions: Homo sapiens
[20] = target: Nucleotide-binding oligomerization domain-containing protein 2 (Homo sapiens, UniProt Q9HC29); test: NOD2 signaling inhibitors, analog potency, SAR follow-up, cell-based, set 3 (AID 2799); format: functional

T1 sequence (P51452 whole entry): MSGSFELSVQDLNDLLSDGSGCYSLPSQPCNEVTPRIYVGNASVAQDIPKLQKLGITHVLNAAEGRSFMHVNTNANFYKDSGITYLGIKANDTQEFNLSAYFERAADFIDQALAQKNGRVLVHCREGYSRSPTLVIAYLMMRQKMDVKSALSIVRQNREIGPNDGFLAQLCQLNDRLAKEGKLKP
T2 sequence (Q00975 whole entry): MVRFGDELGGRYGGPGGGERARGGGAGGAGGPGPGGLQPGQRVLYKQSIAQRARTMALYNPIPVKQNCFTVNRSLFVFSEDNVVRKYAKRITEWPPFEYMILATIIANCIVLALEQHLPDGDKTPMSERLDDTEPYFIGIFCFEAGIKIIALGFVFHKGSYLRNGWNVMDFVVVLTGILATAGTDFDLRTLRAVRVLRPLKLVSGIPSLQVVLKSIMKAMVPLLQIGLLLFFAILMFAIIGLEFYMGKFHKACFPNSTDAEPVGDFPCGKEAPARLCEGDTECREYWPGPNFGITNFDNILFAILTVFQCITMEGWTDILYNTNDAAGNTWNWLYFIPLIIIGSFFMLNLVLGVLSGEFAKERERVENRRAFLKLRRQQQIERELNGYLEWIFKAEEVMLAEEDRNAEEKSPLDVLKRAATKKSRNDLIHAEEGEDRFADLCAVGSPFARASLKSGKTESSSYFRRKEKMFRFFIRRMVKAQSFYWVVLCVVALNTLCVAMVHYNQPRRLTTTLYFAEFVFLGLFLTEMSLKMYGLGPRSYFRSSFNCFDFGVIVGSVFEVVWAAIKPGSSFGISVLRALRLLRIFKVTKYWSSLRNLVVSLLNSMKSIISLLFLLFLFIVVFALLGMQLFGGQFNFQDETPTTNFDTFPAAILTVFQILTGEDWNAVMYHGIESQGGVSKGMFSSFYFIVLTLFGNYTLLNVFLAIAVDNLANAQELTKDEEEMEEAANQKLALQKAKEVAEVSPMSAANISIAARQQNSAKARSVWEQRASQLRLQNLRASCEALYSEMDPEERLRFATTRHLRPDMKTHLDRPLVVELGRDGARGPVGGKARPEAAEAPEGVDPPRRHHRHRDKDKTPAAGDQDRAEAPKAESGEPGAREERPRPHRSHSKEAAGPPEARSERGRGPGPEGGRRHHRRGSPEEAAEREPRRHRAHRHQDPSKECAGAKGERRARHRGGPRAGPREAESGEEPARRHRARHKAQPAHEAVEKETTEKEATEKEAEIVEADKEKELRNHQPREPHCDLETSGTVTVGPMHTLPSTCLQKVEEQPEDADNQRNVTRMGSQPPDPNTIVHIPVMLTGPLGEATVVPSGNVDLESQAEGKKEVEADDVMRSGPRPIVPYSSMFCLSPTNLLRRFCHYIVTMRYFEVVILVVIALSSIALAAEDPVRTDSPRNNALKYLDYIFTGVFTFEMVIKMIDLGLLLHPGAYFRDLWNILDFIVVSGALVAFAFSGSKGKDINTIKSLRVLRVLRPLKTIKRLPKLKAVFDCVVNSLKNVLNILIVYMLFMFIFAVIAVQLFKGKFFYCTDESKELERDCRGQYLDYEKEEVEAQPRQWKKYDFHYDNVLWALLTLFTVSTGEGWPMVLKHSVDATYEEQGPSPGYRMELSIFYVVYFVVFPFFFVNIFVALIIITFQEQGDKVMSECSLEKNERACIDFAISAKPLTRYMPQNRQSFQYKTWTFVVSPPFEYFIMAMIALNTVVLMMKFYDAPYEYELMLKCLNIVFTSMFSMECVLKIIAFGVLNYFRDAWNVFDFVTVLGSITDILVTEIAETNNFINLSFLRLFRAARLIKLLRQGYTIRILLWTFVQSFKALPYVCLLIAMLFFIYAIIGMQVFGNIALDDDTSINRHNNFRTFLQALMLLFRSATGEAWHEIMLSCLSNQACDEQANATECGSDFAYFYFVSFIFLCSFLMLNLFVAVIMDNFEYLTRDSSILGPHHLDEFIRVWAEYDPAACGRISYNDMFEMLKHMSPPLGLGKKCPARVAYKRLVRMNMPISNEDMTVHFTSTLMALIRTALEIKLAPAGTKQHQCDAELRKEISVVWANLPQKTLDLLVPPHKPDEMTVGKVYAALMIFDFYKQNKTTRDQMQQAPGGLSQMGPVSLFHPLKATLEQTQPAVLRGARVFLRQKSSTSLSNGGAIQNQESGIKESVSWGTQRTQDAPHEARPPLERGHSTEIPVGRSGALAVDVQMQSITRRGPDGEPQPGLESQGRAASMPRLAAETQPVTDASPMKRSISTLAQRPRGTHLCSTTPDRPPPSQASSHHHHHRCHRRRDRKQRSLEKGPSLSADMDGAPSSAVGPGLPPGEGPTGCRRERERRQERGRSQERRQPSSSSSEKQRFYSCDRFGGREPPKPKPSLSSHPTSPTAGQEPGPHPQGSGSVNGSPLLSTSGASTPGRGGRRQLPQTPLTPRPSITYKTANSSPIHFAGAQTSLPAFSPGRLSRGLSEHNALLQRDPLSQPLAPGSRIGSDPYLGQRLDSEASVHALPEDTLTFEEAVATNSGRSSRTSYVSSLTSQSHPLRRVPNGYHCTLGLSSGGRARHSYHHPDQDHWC
T2 sequence (Q02410 whole entry): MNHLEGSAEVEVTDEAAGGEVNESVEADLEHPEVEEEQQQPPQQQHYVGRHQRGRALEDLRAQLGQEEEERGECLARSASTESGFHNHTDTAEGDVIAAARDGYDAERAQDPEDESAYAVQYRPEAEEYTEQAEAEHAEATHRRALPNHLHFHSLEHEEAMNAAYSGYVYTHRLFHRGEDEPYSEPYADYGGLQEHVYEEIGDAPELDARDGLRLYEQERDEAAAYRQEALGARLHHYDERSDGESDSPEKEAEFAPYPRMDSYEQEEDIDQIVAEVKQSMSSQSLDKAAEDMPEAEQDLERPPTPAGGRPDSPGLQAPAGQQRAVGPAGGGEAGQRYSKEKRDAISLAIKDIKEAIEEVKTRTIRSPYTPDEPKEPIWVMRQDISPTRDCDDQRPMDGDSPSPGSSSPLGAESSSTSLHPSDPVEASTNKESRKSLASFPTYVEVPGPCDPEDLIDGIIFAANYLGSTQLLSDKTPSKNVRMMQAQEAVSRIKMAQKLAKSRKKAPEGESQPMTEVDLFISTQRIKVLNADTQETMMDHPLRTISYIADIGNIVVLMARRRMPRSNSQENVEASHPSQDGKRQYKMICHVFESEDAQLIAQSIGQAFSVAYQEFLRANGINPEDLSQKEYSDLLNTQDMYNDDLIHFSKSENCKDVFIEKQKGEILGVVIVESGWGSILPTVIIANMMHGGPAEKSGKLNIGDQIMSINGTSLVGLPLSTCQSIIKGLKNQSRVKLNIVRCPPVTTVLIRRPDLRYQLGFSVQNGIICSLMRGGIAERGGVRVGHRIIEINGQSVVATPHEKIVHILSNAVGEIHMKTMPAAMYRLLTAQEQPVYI
Sequence of Genome polyprotein (P29990 2492-3391 limits assumed): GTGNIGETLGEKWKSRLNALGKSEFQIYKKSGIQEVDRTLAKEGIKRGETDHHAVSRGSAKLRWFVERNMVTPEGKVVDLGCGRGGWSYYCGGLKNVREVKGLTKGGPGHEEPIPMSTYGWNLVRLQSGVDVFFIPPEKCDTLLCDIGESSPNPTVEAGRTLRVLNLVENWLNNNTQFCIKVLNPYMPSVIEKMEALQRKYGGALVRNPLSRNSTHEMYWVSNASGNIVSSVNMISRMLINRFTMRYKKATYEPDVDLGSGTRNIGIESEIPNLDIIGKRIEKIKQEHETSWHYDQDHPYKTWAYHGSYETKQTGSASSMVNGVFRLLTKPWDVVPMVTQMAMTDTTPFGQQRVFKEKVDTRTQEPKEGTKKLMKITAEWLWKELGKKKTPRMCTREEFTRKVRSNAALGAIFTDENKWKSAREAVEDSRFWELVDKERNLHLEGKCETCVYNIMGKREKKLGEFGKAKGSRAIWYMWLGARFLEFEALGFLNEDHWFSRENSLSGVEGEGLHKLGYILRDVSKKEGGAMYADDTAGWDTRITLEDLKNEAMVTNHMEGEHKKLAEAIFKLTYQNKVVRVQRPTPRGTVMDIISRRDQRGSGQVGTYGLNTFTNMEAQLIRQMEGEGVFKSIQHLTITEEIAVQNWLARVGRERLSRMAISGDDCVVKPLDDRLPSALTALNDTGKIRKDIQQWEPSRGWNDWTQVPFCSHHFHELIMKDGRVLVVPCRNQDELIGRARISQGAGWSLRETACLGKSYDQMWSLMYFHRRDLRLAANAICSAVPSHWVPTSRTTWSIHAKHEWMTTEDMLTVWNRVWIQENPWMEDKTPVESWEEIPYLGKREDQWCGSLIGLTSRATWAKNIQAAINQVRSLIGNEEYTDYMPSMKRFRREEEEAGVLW
Sequence of Sphingosine 1-phosphate receptor 2 (O95136 whole entry, the tested form may be a part): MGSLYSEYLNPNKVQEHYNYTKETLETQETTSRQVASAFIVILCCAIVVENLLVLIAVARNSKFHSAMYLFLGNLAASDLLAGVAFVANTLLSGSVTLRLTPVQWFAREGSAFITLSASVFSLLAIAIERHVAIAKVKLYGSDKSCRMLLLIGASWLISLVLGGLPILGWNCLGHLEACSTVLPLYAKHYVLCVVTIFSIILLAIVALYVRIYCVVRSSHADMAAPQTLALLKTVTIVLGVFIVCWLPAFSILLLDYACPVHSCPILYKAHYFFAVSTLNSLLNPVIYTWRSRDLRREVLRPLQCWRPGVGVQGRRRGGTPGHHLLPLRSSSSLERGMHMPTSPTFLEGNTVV
Sequence of Induced myeloid leukemia cell differentiation protein Mcl-1 (Q07820 whole entry): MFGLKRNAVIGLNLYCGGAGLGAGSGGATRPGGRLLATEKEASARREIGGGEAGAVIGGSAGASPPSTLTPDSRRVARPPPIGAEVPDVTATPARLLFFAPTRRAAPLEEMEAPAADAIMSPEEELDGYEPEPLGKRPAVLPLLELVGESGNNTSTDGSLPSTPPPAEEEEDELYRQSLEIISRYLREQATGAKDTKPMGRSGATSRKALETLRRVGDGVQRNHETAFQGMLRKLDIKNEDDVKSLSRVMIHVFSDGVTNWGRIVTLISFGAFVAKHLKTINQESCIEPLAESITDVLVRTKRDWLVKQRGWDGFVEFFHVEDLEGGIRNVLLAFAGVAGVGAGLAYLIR

O=C(CN1C(=O)/C(=C2\SC(=S)N(CCS(=O)(=O)O)C2=O)c2ccccc21)Nc1cccc(Br)c1
IC50 [1]: 3.65 µM (active) | IC50 [2]: 9.59 µM (active) | IC50 [3]: > 50 µM (inactive) | IC50 [4]: 2 µM (active) | IC50 [5]: 4.92 µM (active) | IC50 [6]: > 109 µM (not active) | IC50 [7]: 30 µM (active) | IC50 [8]: > 66.6 µM (inactive) | AC50 [9]: 12.4 µM (active) | EC50 [10]: 7.59 µM (active) | IC50 [11]: 21.6 µM (active)

Cc1ccccc1NC(=O)c1ccc(-c2cc(Cl)ccc2Cl)o1
IC50 [12]: > 25 µM (inactive) | IC50 [13]: > 25 µM (inactive) | IC50 [14]: > 25 µM (inactive) | IC50 [15]: 0.393 µM (active) | IC50 [16]: > 25 µM (inactive)

N#Cc1ccc(S(=O)(=O)n2c(N)nc3ccccc32)cc1
IC50 [17]: > 20 µM (inactive) | IC50 [18]: > 20 µM (inactive) | IC50 [19]: > 20 µM (inactive) | IC50 [20]: > 20 µM (inactive)
